Results as given in patent US11583532B2, “Triazolopyrimidine derivatives for use as ghrelin o-acyl transferase (GOAT) inhibitors” (Boehringer Ingelheim International GmbH, priority 2018, dated 2023).
Where “and” joins values, the source holds several entries; their conditions need not be identical. Identical values can stand only once.

target: human GOAT (ghrelin O-acyl transferase) (Homo sapiens (Human), UniProt Q96T53); experiment: Determination of hGOAT activity in HEK293 cells after incubation with test compound (acyl-ghrelin ELISA); type: cell-based; conditions: HEK293 cells stably transfected with preproghrelin and human GOAT cDNA; octanoate-BSA 100 μM; 5 hours incubation; acyl-ghrelin in medium by ELISA; 8 compound concentrations
Method: Determination of hGOAT Activity in HEK293 Cells after incubation with test compound
HEK293 cells stably transfected with two expression vectors, one coding for preproghrelin cDNA and a second for the expression of human GOATcDNA are used as a cellular model. After feeding the cells with octanoic acid for 5 hours, acyl-ghrelin is measured in cell culture medium by an ELISA procedure.
Cellline: Hek293 hGOAT/PPGhrl Clone #1B8Sodium octanoate, Sigma, Cat.-No. C5038
BSA: Sigma, Cat.-No. A8806
BD Poly-D-Lysin 384-well Plates, black-clear polystyrene BD Bioscience Cat.-No. […] ELISA human acylated Ghrelin Kit purchased from Bertin Pharman (detailed composition of buffers e.g. wash-puffer, ELISA buffer not known)
All further reagents used were of highest analytical grade available.
Cells are plated with a density of 5000 cells/well in 384-well poly-D-lysin plates and incubated for 1 day at 37° C., 5% CO2 in DMEM medium, 10% FCS, 1×NEAA, Puromycin (0.5 μg/ml) and G418 (1 mg/ml). Then the medium is changed to a identical medium without FCS and containing Octanoate-BSA (final concentration 100 μM each) and compound in DMSO (final DMSO concentration 0.3%). After incubation for 5 hours acylghrelin in the medium is measured by ELISA.
The medium sample is diluted 1:25 in Elisa buffer, a 25 μl aliquot is transferred to a 384-well ELISA plate previously washed 4 times with 100 μL wash buffer, and 25 μl tracer-solution is added. After incubation overnight (˜20 h) at 4° C. temperature the plate is washed 4 times with 100 μl wash-buffer per well. Finally 50 μl Ellman's reagent is added to each well and the plate is incubated in the dark for 20 minutes. The absorbance is measured at 405 nm in an Envision multilabel reader and the amount of acylated ghrelin is calculated according to a acylated ghrelin standard curve provided in the same plate.
The analysis of the data is performed by calculation of the percentage of acyl-ghrelin produced in the presence of test compound compared to the amount of acyl-ghrelin produced in the vehicle control samples. An inhibitor of the GOAT enzyme will give values between 100% CTL (no inhibition) and 0% CTL (complete inhibition).
IC50 values are calculated with Assay Explorer or other suited software based on curve fitting of results of 8 different compound concentrations.

Sequence of human GOAT (ghrelin O-acyl transferase) (Q96T53 whole entry): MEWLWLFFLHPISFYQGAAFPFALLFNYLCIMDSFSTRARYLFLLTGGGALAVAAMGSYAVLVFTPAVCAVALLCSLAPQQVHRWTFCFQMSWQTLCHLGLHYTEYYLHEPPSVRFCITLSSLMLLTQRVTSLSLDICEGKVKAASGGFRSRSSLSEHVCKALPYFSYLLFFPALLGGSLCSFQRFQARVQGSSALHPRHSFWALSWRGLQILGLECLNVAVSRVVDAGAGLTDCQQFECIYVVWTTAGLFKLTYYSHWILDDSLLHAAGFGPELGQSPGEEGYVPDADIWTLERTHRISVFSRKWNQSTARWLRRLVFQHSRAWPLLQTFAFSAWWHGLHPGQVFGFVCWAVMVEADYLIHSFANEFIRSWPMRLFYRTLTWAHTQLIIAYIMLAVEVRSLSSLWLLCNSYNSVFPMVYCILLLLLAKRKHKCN

| IC50 | Structure (SMILES) |
| --- | --- |
| 0.27 nM | Cc1nc2ncnn2c(N)c1Cc1ccc(Br)c(OCCCF)n1 [Example 8.1, 6-{[5-Bromo-6-(3-fluoropropoxy)pyridin-2-yl]methyl}-5-methyl-[1,2,4]triazolo[1,5-a]pyrimidin-7-amine] |
| 1.7 nM | Cc1nc2ncnn2c(N)c1Cc1cccc(-c2cn(C)nc2C(F)(F)F)n1 [Example 13.1, 5-Methyl-6-({6-[1-methyl-3-(trifluoromethyl)-1H-pyrazol-4-yl]pyridin-2-yl}methyl)-[1,2,4]triazolo[1,5-a]pyrimidin-7-amine] |
| 2.3 nM | Cc1nc2ncnn2c(N)c1Cc1ccc(C#N)c(NC2CC(F)(F)C2)n1 [Example 7.3] |
| 0.95 nM | Cc1nc2ncnn2c(N)c1Cc1ccc(OC(F)(F)F)c(N=S(C)(C)=O)c1 [Example 11.1, {[5-({7-Amino-5-methyl-[1,2,4]triazolo[1,5-a]pyrimidin-6-yl}methyl)-2-(trifluoromethoxy)phenyl]imino}dimethyl-λ6-sulfanone] |
| 1.3 nM | Cc1nc2ncnn2c(N)c1Cc1ccc(C#N)c(NCCCF)n1 [Example 7.9] |
| 0.95 nM | Nc1c(Cc2ccc(C(F)(F)F)cc2)c(C(F)F)nc2ncnn12 [Example 17.1, 5-(Difluoromethyl)-6-{[4-(trifluoromethyl)phenyl]methyl}-[1,2,4]triazolo[1,5-a]pyrimidin-7-amine] |
| 0.57 nM | COC(=O)c1cc(Cc2c(C)nc3ncnn3c2N)ccc1C(F)(F)F [Example 7.2] |
| 2 nM | Cc1nc2ncnn2c(N)c1Cc1ccc(OC(F)F)c(Br)c1 [Example 1.2] |
| 1.1 nM | Cc1nc2ncnn2c(N)c1Cc1ccc(C#N)c(NCCF)n1 [Example 7.8] |
| 0.56 nM | Cc1nc2ncnn2c(N)c1Cc1ccc(C#N)c(OCCCF)n1 [Example 9.3] |
| 5 nM | Cc1nc2ncnn2c(N)c1Cc1ccc(C(F)(F)F)cc1Br [Example 17.2] |
| 0.65 nM | Cc1nc2ncnn2c(N)c1Cc1ccc(C(F)(F)F)c(N2CCOCC2)n1 [Example 3.1, 5-Methyl-6-{[6-(morpholin-4-yl)-5-(trifluoromethyl)pyridin-2-yl]methyl}-[1,2,4]triazolo[1,5-a]pyrimidin-7-amine] |
| 3.5 nM and 5.4 nM | Cc1nc2ncnn2c(N)c1Cc1ccc(OC(F)(F)F)c(C(=O)N(C)C)c1 [Example 15.2, 5-({7-Amino-5-methyl-[1,2,4]triazolo[1,5-a]pyrimidin-6-yl}methyl)-N,N-dimethyl-2-(trifluoromethoxy)benzamide] |
| 3.9 nM | Cc1nc2ncnn2c(N)c1Cc1ccc(C#N)c(OCC(F)(F)F)n1 [Example 9.5] |
| 0.93 nM | Cc1nc2ncnn2c(N)c1Cc1ccc(C#N)c(NCCC(F)F)n1 [Example 7.7] |
| 8.1 nM | Cc1nc2ncnn2c(N)c1Cc1ccc(C(F)(F)F)cc1F [Example 21.1, 6-{[2-Fluoro-4-(trifluoromethyl)phenyl]methyl}-5-methyl-[1,2,4]triazolo[1,5-a]pyrimidin-7-amine] |
| 1.7 nM | Cc1nc2ncnn2c(N)c1Cc1ccc(SC(F)(F)F)cc1 [Example 6.5, 5-methyl-6-({4-[(trifluoromethyl)sulfanyl]phenyl}methyl)-[1,2,4]triazolo[1,5-a]pyrimidin-7-amine] |
| 5.7 nM | Nc1c(Cc2ccc(C(F)(F)F)cc2)c(Cl)nc2ncnn12 [Example 25.3] |
| 0.86 nM | Cc1nc2ncnn2c(N)c1Cc1ccc(Br)c(N2Cc3ccc(F)cc3C2)n1 [Example 23.6] |
| 0.3 nM | Cc1nc2ncnn2c(N)c1Cc1ccc(Br)c(OCC(F)F)n1 [Example 8.4] |
| 0.23 nM | Cc1nc2ncnn2c(N)c1Cc1ccc(Br)c(NCC(F)(F)F)n1 [Example 8.2] |
| 0.4 nM | Cc1nc2ncnn2c(N)c1Cc1ccc(C(F)(F)F)c(-c2ccco2)n1 [Example 2.1, 6-{[6-(Furan-2-yl)-5-(trifluoromethyl)pyridin-2-yl]methyl}-5-methyl-[1,2,4]triazolo[1,5-a]pyrimidin-7-amine] |
